From patent EP1082127B1 (WARNER-LAMBERT COMPANY LLC, priority 1998, dated 1999) come the findings set out here.

Each structure is given as a SMILES string.

Experiment [1] addresses T1, ICE (Homo sapiens, UniProt P29466).
T1 sequence (P29466 120-297 limits assumed): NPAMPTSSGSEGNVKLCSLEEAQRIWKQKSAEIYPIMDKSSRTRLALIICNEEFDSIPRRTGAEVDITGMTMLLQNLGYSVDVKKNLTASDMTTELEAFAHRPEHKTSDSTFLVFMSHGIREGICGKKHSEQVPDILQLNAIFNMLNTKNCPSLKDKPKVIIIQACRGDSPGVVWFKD
T1 sequence (P29466 317-404 limits assumed): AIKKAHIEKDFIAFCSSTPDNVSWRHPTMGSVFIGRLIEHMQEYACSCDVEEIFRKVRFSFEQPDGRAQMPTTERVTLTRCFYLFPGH
Description: ICE inhibition, Ki determination (fluorogenic substrate Ac-Tyr-Val-Ala-Asp-AMC). It is filed as biochemical. The note with it: 15 µM Ac-Tyr-Val-Ala-Asp-AMC, 0.5 nM enzyme, 30°C, reversible competitive model.

The target of experiment [2] is T1, ICE. Description: ICE Colorimetric Dose-Response (IC50) Assay. It is filed as biochemical. The settings on record: 60 minutes preincubation, 50 µM Ac-Tyr-Val-Ala-Asp-pNA, 25°C. The procedure, abridged:
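Human ICE (~24 nM in HGE buffer, pH 7.5, activated with 5 mM DTT) preincubated 60 min at ambient temperature with two-fold serial inhibitor dilutions, in triplicate. Ac-Tyr-Val-Ala-Asp-pNA added at 50 µM; A405 followed for 1 h at 25°C starting 5 min after substrate, activity taken as mean rate.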

Experiment [3] has as its system IL-1β production in human peripheral blood mononuclear cells (PBMCs). As to the kind of experiment: PBMC Cellular Assay - IC50 Determinations (LPS-stimulated IL-1β production, ELISA). The format is cell-based. The settings on record: human PBMCs stimulated overnight with 10 ng/mL LPS, mature IL-1β by ELISA. In outline:
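Ficoll-isolated human PBMCs (10^6/well, RPMI with 2% human AB serum) were stimulated overnight with LPS 10 ng/mL (E. coli 0111:B4) with or without compound. Mature IL-1β in medium measured by ELISA; viability checked by MTT over a further 4 h.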

The target in experiment [4] is T2, Ich-2 enzyme (Homo sapiens, UniProt P49662).
T2 sequence (P49662 81-270 limits assumed): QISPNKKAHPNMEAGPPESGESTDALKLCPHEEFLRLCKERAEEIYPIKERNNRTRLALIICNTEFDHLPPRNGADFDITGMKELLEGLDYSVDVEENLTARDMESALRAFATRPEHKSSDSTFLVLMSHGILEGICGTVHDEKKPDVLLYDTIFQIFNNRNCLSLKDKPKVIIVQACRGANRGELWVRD
T2 sequence (P49662 290-377 limits assumed): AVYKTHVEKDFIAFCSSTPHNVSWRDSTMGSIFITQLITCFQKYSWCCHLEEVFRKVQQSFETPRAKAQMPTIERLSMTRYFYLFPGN
Description: Ich-2 Colorimetric Dose-Response (IC50) Assay. It is filed as biochemical. The note with it: enzyme 64 nM, 60 µM Ac-Leu-Glu-Val-Asp-pNA; read-out: ICH2 IC50 (Caspase 4). In outline:
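Colorimetric readout: mean rate of A405 change over 1 h at 25°C, starting 5 min after adding 60 µM Ac-Leu-Glu-Val-Asp-pNA. Beforehand, DTT-activated (5 mM) enzyme, 64 nM in pH 7.5 Hepes/EDTA/glycerol/BSA buffer, sat 60 min at ambient temperature with serial two-fold inhibitor dilutions, tested in triplicate.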

What is called Ki is a dissociation constant, usually derived from enzyme kinetics or from competition with a known ligand. High values mean weaker binding, low ones tighter binding. In general, IC50 refers to the point on the concentration scale where inhibition reaches its midpoint. For the compound `CC(C)C(CC(=O)NCCc1cn(C)c2ccccc12)C(=O)NC(C=O)CC(=O)O` (stereo not shown) [Example 54, 3-(3-Methyl-2-{[2-(1-methyl-1H-indol-3-yl)-ethylcarbamoyl]-methyl}-butyrylamino)-4-oxo-butyric acid], in experiment [1], the affinity, expressed as Ki, was 4 nM. Also, the half-inhibitory concentration (IC50) in experiment [2] turned out to be 37 nM; in experiment [3] it was 2.85 µM; in experiment [4], 11.1 µM.
Take `CC(C)C(CC(=O)NCCc1cn(C)c2ccc(F)cc12)C(=O)NC(C=O)CC(=O)O` (stereo not shown) [Example 55, 3-(2-{[2-(5-Fluoro-1-methyl-1H-indol-3-yl)-ethylcarbamoyl]-methyl}-3-methyl-butyrylamino)-4-oxo-butyric acid]: the Ki in experiment [1] stood at 7.9 nM. The IC50 in experiment [2] was 37 nM; in experiment [3], 5.3 µM; in experiment [4], 11.5 µM.
Take `CC(C)[C@H](CC(=O)NCCn1cnc2cc(Cl)c(Cl)cc21)C(=O)NC(C=O)CC(=O)O` (stereo partly shown) [Example 56, 3-(2-{[2-(5,6-Dichloro-benzoimidazol-1-yl)-ethylcarbamoyl]-methyl}-3-methyl-butyrylamino)-4-oxo-butyric acid]: affinity in experiment [1] was put at a Ki of 4.4 nM. The IC50 in experiment [2] was 28.6 nM; in experiment [3], 3.25 µM; in experiment [4], 4.02 µM.
In turn, `CC(C)C(CC(=O)N(C)CCn1cnc2ccccc21)C(=O)NC(C=O)CC(=O)O` (stereo not shown) [Example 57, 3-(2-{[(2-Benzoimidazol-1-yl-ethyl)-methyl-carbamoyl]-methyl}-3-methyl-butyrylamino)-4-oxo-butyric acid] showed a Ki in experiment [1] of 22.9 nM. Moreover, the IC50 is 227 nM in experiment [2], 3.75 µM in experiment [3] and 38 µM in experiment [4].
In the same order, the values of `CC(C)C(CC(=O)NCCn1nnc2ccccc21)C(=O)NC(C=O)CC(=O)O` (stereo not shown) [Example 58, 3-{2-[(2-Benzotriazol-1-yl-ethylcarbamoyl)-methyl]-3-methyl-butyrylamino}-4-oxo-butyric acid] are 31.8 nM, 336 nM, 7.75 µM and 10.6 µM.
With `CC(C)C(CC(=O)NCCn1ncc2ccccc21)C(=O)NC(C=O)CC(=O)O` (stereo not shown) [Example 59, 3-{2-[(2-Indazol-1-yl-ethylcarbamoyl)-methyl]-3-methyl-butyrylamino}-4-oxo-butyric acid], in experiment [1], the affinity corresponds to a Ki of 33.2 nM. Besides, the IC50 in experiment [2] was found to be 56.6 nM; in experiment [3], 3.75 µM; in experiment [4], 10.4 µM.
For `Cc1cc2ncn(CCN(C)C(=O)CC(C(=O)NC(C=O)CC(=O)O)C(C)C)c2cc1C` (stereo not shown) [Example 60, 3-[2-({[2-(5,6-Dimethyl-benzoimidazol-1-yl)-ethyl]-methylcarbamoyl}-methyl)-3-methyl-butyrylamino]4-oxo-butyric acid] the same measures were 9.2 nM, 468 nM, 5 µM and 12.7 µM.
